Several values for one entry are separate records, joined by “and”; a condition that tells them apart may be missing. Equal entries are not always repeated. Toxic doses and inconclusive results are not listed. Square brackets hold non-standard residues; d marks the D form. Peptide text beside a SMILES is read from it. pGlu = O=C1CC[CH](C(=O)O)N1

21 compounds from PubChem BioAssay AID330 (DTP/NCI, 2004) can be followed below.

The test system of this assay is P388 leukemia ip, CD2F1 mice, survival T/C. The assay is described as follows: NCI In Vivo Anticancer Drug Screen. Data for tumor model P388 Leukemia (intraperitoneal) in CD2F1 (CDF1) mice. As to conditions: endpoint: median survival time, higher = longer survival. A digest of the protocol:
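Mice carrying the transplanted tumor received test compound or vehicle. Survival was recorded in each group, and the value is the treated-group measurement divided by that of the vehicle-treated control group.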

Where [1] appears, read: dose: 50.0 mg/kg/injection, schedule: Q01DX009 (ip), vehicle: saline.
The mark [2] stands for this setting: dose: 100.0 mg/kg/injection, schedule: Q01DX009 (ip), vehicle: saline.
Setting [3] is: dose: 200.0 mg/kg/injection, schedule: Q01DX009 (ip), vehicle: saline.
The mark [4] stands for this setting: dose: 60.0 mg/kg/injection, schedule: Q01DX005 (ip), vehicle: saline.
Where [5] appears, read: dose: 120.0 mg/kg/injection, schedule: Q01DX005 (ip), vehicle: saline.
[6] abbreviates: dose: 240.0 mg/kg/injection, schedule: Q01DX005 (ip), vehicle: saline.
Setting [7] is: dose: 200.0 mg/kg/injection, schedule: Q01DX005 (ip), vehicle: saline with Tween-80.
[8] abbreviates: dose: 50.0 mg/kg/injection, schedule: Q01DX009 (ip), vehicle: Klucel (hydroxypropylcellulose) (HPC).
Where [9] appears, read: dose: 60.0 mg/kg/injection, schedule: Q01DX005 (ip), vehicle: saline with Tween-80.
[10] abbreviates: dose: 120.0 mg/kg/injection, schedule: Q01DX005 (ip), vehicle: saline with Tween-80.
The mark [11] stands for this setting: dose: 50.0 mg/kg/injection, schedule: Q01DX009 (ip), vehicle: saline with Tween-80.
The mark [12] stands for this setting: dose: 100.0 mg/kg/injection, schedule: Q01DX009 (ip), vehicle: saline with Tween-80.
Setting [13] is: dose: 6.25 mg/kg/injection, schedule: Q01DX009 (ip), vehicle: saline with Tween-80.
Where [14] appears, read: dose: 100.0 mg/kg/injection, schedule: Q04DX003 (ip), vehicle: saline with Tween-80.
Setting [15] is: dose: 200.0 mg/kg/injection, schedule: Q04DX003 (ip), vehicle: saline with Tween-80.

For `NC(Cc1cccc(NP(=S)(N2CC2)N2CC2)c1)C(=O)O` (centres undefined), the T/C reads like this: (dose: 12.5 mg/kg/injection, schedule: Q04DX003 (ip), vehicle: saline) 109 % of control; (dose: 25.0 mg/kg/injection, schedule: Q04DX003 (ip), vehicle: saline) 118 % of control; under setting [1], 159 % of control; (dose: 50.0 mg/kg/injection, schedule: Q04DX003 (ip), vehicle: saline with Tween-80) 103 % of control; (dose: 75.0 mg/kg/injection, schedule: Q04DX003 (ip), vehicle: saline with Tween-80) 92 % of control; under setting [2], 181 % of control. In addition, the T/C reads like this: (dose: 100.0 mg/kg/injection, schedule: Q04DX003 (ip), vehicle: saline) 183 % of control; under setting [3], 209 % of control; (dose: 200.0 mg/kg/injection, schedule: Q04DX003 (ip), vehicle: saline) 225 % of control; (dose: 264.0 mg/kg/injection, schedule: Q04DX003 (ip), vehicle: saline) 195 % of control; (dose: 400.0 mg/kg/injection, schedule: Q04DX003 (ip), vehicle: saline) 245 % of control and 250 % of control.

For `CC1=NN(c2ccccc2)C(=O)C1N=Nc1cc(Cl)cc(S(=O)(=O)O)c1O` (centres undefined), the T/C runs as follows: under setting [1], 96 % of control; under setting [2], 97 % of control.

On to `Nc1nnc2nc(C(C(=O)c3cccc(O)c3)c3nc4nnc(N)n4[nH]c3=O)c(=O)[nH]n12`, for which the T/C is, setting by setting: under setting [4], 97 % of control; under setting [5], 106 % of control; under setting [6], 97 % of control.

As for `CCOC(=O)CCC(NC(=O)C1CCC(=O)N1)C(=O)OCC` (centres undefined) ([pGlu]-Glu(OEt)-OEt; configuration not given here), the T/C (dose: 50.0 mg/kg/injection, schedule: Q01DX005 (ip), vehicle: saline with Tween-80) is 96 % of control; the T/C (dose: 100.0 mg/kg/injection, schedule: Q01DX005 (ip), vehicle: saline with Tween-80) was 91 % of control; the T/C under setting [7] is 98 % of control.

In the case of `Nc1ccc2ccccc2c1-c1c(N)ccc2ccccc12`, the T/C (dose: 6.25 mg/kg/injection, schedule: Q01DX009 (ip), vehicle: Klucel (hydroxypropylcellulose) (HPC)) was 109 % of control; the T/C (dose: 12.5 mg/kg/injection, schedule: Q01DX009 (ip), vehicle: Klucel (hydroxypropylcellulose) (HPC)) is 91 % of control; the T/C (dose: 25.0 mg/kg/injection, schedule: Q01DX009 (ip), vehicle: Klucel (hydroxypropylcellulose) (HPC)) was 102 % of control; the T/C under setting [8] was 111 % of control.

As to `COc1ccc(/C=C\C(C)=N\NC(=S)Nc2ccc(Br)cc2)cc1`, the T/C reads like this: (dose: 50.0 mg/kg/injection, schedule: Q01DX005 (ip), vehicle: Klucel (hydroxypropylcellulose) (HPC)) 97 % of control; (dose: 100.0 mg/kg/injection, schedule: Q01DX005 (ip), vehicle: Klucel (hydroxypropylcellulose) (HPC)) 96 % of control; (dose: 200.0 mg/kg/injection, schedule: Q01DX005 (ip), vehicle: Klucel (hydroxypropylcellulose) (HPC)) 89 % of control.

With `Cc1ccc(Nc2ccc(Nc3ccc(C)cc3)c3c2C(=O)c2cc(Cl)c(Cl)cc2C3=O)cc1`, the T/C reads like this: under setting [8], 101 % of control and 93 % of control and 95 % of control; (dose: 100.0 mg/kg/injection, schedule: Q01DX009 (ip), vehicle: Klucel (hydroxypropylcellulose) (HPC)) 111 % of control and 89 % of control and 96 % of control; (dose: 200.0 mg/kg/injection, schedule: Q01DX009 (ip), vehicle: Klucel (hydroxypropylcellulose) (HPC)) 103 % of control and 105 % of control; (dose: 400.0 mg/kg/injection, schedule: Q01DX009 (ip), vehicle: Klucel (hydroxypropylcellulose) (HPC)) 98 % of control.

As to `CN(C)c1ccc(/C=C(\NC(=O)c2ccccc2)c2nc3ccccc3s2)cc1`, the T/C is 105 % of control under setting [9], 116 % of control under setting [10] and 106 % of control under setting [7].

For the compound `Cn1c(=O)[nH]c(N)c(C(=O)CCl)c1=O`, the T/C is 97 % of control under setting [9] and 105 % of control under setting [10].

Take `CC(C)=NOc1ccccc1[N+](=O)[O-]`: the T/C is 111 % of control under setting [11]; 101 % of control under setting [12]; 93 % of control (dose: 200.0 mg/kg/injection, schedule: Q01DX009 (ip), vehicle: saline with Tween-80).

With `CC(=O)OCC1OC(n2cnc3c(=S)nc(N)[nH]c32)CC1OC(C)=O` (centres undefined), the T/C is 102 % of control (dose: 1.25 mg/kg/injection, schedule: Q04DX003 (ip), vehicle: saline with Tween-80); 106 % of control (dose: 2.5 mg/kg/injection, schedule: Q04DX003 (ip), vehicle: saline with Tween-80); 113 % of control and 123 % of control (dose: 5.0 mg/kg/injection, schedule: Q04DX003 (ip), vehicle: saline with Tween-80); 156 % of control and 158 % of control and 159 % of control (dose: 20.0 mg/kg/injection, schedule: Q04DX003 (ip), vehicle: saline with Tween-80); 174 % of control (dose: 30.0 mg/kg/injection, schedule: Q04DX003 (ip), vehicle: saline with Tween-80).

As to `CCOC(=O)c1ccc(NN=NCCOC)cc1`, the T/C by setting is: (dose: 12.5 mg/kg/injection, schedule: Q01DX009 (ip), vehicle: distilled water + Tween-80) 102 % of control; (dose: 25.0 mg/kg/injection, schedule: Q01DX009 (ip), vehicle: distilled water + Tween-80) 101 % of control and 105 % of control; (dose: 50.0 mg/kg/injection, schedule: Q01DX009 (ip), vehicle: distilled water + Tween-80) 122 % of control and 123 % of control.

With `O=C1OC2C(O1)C1(c3ccccc3)C(=O)C2(c2ccccc2)C(c2ccccc2)=C1c1ccccc1` (centres undefined), the T/C reads like this: under setting [13], 107 % of control and 96 % of control; (dose: 12.5 mg/kg/injection, schedule: Q01DX009 (ip), vehicle: saline with Tween-80) 106 % of control and 94 % of control; (dose: 25.0 mg/kg/injection, schedule: Q01DX009 (ip), vehicle: saline with Tween-80) 101 % of control and 96 % of control; under setting [11], 98 % of control and 105 % of control; under setting [12], 89 % of control.

Consider `CCOC(=O)Cc1cn2cc(Cl)cc(Cl)c2n1`, for which the T/C was 111 % of control under setting [14]; 100 % of control under setting [15]; 100 % of control (dose: 400.0 mg/kg/injection, schedule: Q04DX003 (ip), vehicle: saline with Tween-80).

Turning to `COC(=O)CS(=O)(=O)CCS(=O)(=O)CC(=O)OC`, the T/C was 99 % of control and 100 % of control (dose: 12.5 mg/kg/injection, schedule: Q01DX009 (ip), vehicle: saline); 94 % of control and 98 % of control (dose: 25.0 mg/kg/injection, schedule: Q01DX009 (ip), vehicle: saline); 99 % of control and 124 % of control and 98 % of control under setting [1]; 103 % of control and 104 % of control and 113 % of control under setting [2]; 114 % of control under setting [3].

Regarding `Cn1cnc2c(N(CCO)CCO)ncnc21`, the T/C (dose: 50.0 mg/kg/injection, schedule: Q01DX005 (ip), vehicle: distilled water + Tween-80 + alcohol) is 109 % of control; the T/C (dose: 100.0 mg/kg/injection, schedule: Q01DX005 (ip), vehicle: distilled water + Tween-80 + alcohol) was 105 % of control; the T/C (dose: 200.0 mg/kg/injection, schedule: Q01DX005 (ip), vehicle: distilled water + Tween-80 + alcohol) was 106 % of control.

For `CC(=O)Nc1ccc(Nc2cc(S(=O)(=O)O)c(N)c3c2C(=O)c2ccccc2C3=O)cc1`, the T/C is, setting by setting: under setting [4], 92 % of control; under setting [5], 95 % of control; under setting [6], 92 % of control.

With `CCCCCCCCCCCCCCCCCC(=O)NN`, the T/C is 94 % of control under setting [14] and 87 % of control under setting [15].

As for `[Cl][Sn]1([Cl])[CH2]CC[CH2][Sn]([Cl])([Cl])[CH2]CC[CH2][Sn]([Cl])([Cl])[CH2]CC[CH2][Sn]([Cl])([Cl])[CH2]CC[CH2]1`, the T/C is 93 % of control (dose: 50.0 mg/kg/injection, schedule: Q01DX005 (ip), vehicle: saline); 92 % of control (dose: 100.0 mg/kg/injection, schedule: Q01DX005 (ip), vehicle: saline); 102 % of control (dose: 200.0 mg/kg/injection, schedule: Q01DX005 (ip), vehicle: saline).

Consider `N=C(N)c1ccc(-c2ccc(-c3ccc(C(=N)N)cc3)o2)cc1`, for which the T/C is, setting by setting: (dose: 3.13 mg/kg/injection, schedule: Q01DX009 (ip), vehicle: saline with Tween-80) 94 % of control; under setting [13], 102 % of control.

On to `O=C(Nc1c(Cl)cc(Cl)cc1Cl)ON=C1CCCCC1`, for which the T/C was 96 % of control under setting [9] and 102 % of control under setting [10].
